*1 amine or outer side, *2 acyl side, *3 side chain or, on linkers, in order; H or OH if unused. Where a SMILES comes first, the peptide text is derived from it. Bridges are numbered along the chain shown (N, C = ends). Roman numbers before positions name the chains, in order. [ ]: non-standard residue; d: D form. The star is where a group is joined. X5 = C#CCOCCOCCOCCOCCN1C[C@@H](C(=O)[*:1])[C@H](C(=O)[*:2])C1; Propargyl(OCH2CH2)4CO = C#CCOCCOCCOCCOCCC(=O)*; azaDab = NCCN(N[*:1])C(=O)[*:2]; Aoc(2) = CCCCCC[C@H](N)C(=O)O; Nle = CCCC[C@H](N)C(=O)O; Dab = NCC[C@H](N)C(=O)O; azaGly = NNC(=O)O
Legend:
[1] = system: Ec COL^R LPS: colistin-resistant (MCR-1) strain (AR0349); assay: Lethal mouse endotoxemia model (LD95 purified LPS IP); type: in vivo, C57BL/6J mice; conditions: (D) Endotoxemia (Ec COL^R LPS); 5 mg/kg IV, single, -1 hr; survival after three days
Procedure: (§1) Studies (B)-(D) shown in Table 22 summarizes the efficacy of compounds in lethal models of endotoxemia. In these models 6 week old C57I/6J immune competent mice (Jackson Laboratory) were challenged IP with purified lipopolysaccharide (LPS) in PBS at an LD95. For all studies, LPS was obtained from Sigma (catalog numbers in the table footnote) or were purified using a kit obtained from iNtRON Biotechnology Inc. (cat #17141). One hour prior to LPS challenge mice were dosed with test articles as indicated (Table 22). The results of these studies indicate that compounds are able to neutralize the lethal effects of LPS in a severe endotoxemia/sepsis model.
End point was survival after 3 days. Ec: E. coli 0111:B34, Sigma cat #L4130; Ab: Acinetobacter baumannii 5075; Kp: Klebsiella pneumonia 10, Sigma cat #L4268; Ng: Neisseria gonorrhoeae 19424; Ec 026:B86, Sigma cat #L2762; Pm: Proteus mirabilis, Sigma cat #SMB00704; Sm: Serratia marcescens, Sigma cat #L6016; Pa: Pseudomonas aeruginosa 10. […] Purified LPS used for all endotoxemia studies and if not denoted by a Sigma catalog number the LPS was purified in-house using an iNtRON #17141 purification kit. *Delayed death, at the time Fc only animals reached 100% mortality all Conjugate 41 mice were still alive.

Ec LPS: E. coli 0111:B4 = assay: as above; type: in vivo, C57BL/6J mice; conditions: (B) Endotoxemia (Ec LPS); 1 mg/kg IV, single, -1 hr; survival after three days
Procedure: as §1
End point was survival after 3 days. Ec: E. coli 0111:[…] (Sigma cat #L4130); Ab: Acinetobacter baumannii 5075 (iNtRON cat #17141); Ng: Neisseria gonorrhoeae 19424 (iNtRON cat #17141); COL: colistin.
End point was survival after 3 days. Ec: E. coli 0111:B34, Sigma cat #L4130; Ab: Acinetobacter baumannii 5075; Kp: Klebsiella pneumonia 10, Sigma cat #L4268; Ng: Neisseria gonorrhoeae 19424; Ec 026:B86, Sigma cat #L2762; Pm: Proteus mirabilis, Sigma cat #SMB00704; Sm: Serratia marcescens, Sigma cat #L6016; Pa: Pseudomonas aeruginosa 10. […]

C#CCOCCOCCOCCOCCN1C[C@@H](C(=O)N[C@@H](CCCC)C(=O)N[C@@H](CCN)C(=O)N[C@H](C(=O)NNC(=O)N[C@H]2CCNC(=O)[C@H]([C@@H](C)O)NC(=O)[C@H](CCN)NC(=O)[C@H](CCN)NC(=O)[C@H](CC(C)C)NC(=O)[C@@H](Cc3ccccc3)NC(=O)[C@H](CCN)NC2=O)[C@@H](C)O)[C@H](C(=O)N[C@@H](CCCC)C(=O)N[C@@H](CCN)C(=O)N[C@H](C(=O)NNC(=O)N[C@H]2CCNC(=O)[C@H]([C@@H](C)O)NC(=O)[C@H](CCN)NC(=O)[C@H](CCN)NC(=O)[C@H](CC(C)C)NC(=O)[C@@H](Cc3ccccc3)NC(=O)[C@H](CCN)NC2=O)[C@@H](C)O)C1 [Int-120] (I: [Nle][Dab]T[azaGly][Dab][Dab][dF]L[Dab][Dab]T / II: [Nle][Dab]T[azaGly][Dab][Dab][dF]L[Dab][Dab]T; lactam I:5-I:C, II:5-II:C; linker I:N-II:N via X5)
% survival [1]: 100%

C#CCOCCOCCOCCOCCC(=O)N[C@@H](CCCCCC)C(=O)N[C@@H](CCN)C(=O)N[C@H](C(=O)NN(CCN)C(=O)N[C@H]1CCNC(=O)[C@H]([C@@H](C)O)NC(=O)[C@H](CCN)NC(=O)[C@H](CCN)NC(=O)[C@H](CC(C)C)NC(=O)[C@@H](Cc2ccccc2)NC(=O)[C@H](CCN)NC1=O)[C@@H](C)O [Int-129] ({Propargyl(OCH2CH2)4CO}-[Aoc(2)][Dab]T[azaDab][Dab][Dab][dF]L[Dab][Dab]T; lactam 5-C)
% survival (Ec LPS: E. coli 0111:B4): 100%

— patent US20230165970A1, “COMPOSITIONS AND METHODS FOR THE TREATMENT OF BACTERIAL INFECTIONS” (priority 2017, published 2023)
